According to US9062051B2, “Compounds and pharmaceutical compositions thereof for the treatment of proliferative disorders” (GALAPAGOS NV, priority 2014, dated 2015):

The compounds below were run against T1, EphA2 (UniProt Ref: P29317) (Homo sapiens, UniProt P29317) (assay: EphA2 assay (Reaction Biology HotSpot radioactive kinase assay)). Conditions: ATP 10 μM; read-out: EphA2 potency IC50.
T1 construct: purchased Reaction Biology
Type: biochemical
Protocol: Inhibition of EphA2 (UniProt Ref: P29317) by a test compound is determined by a commercially available Reaction Biology proprietary nanoliter radioactive HotSpot^SM assay (Reaction Biology, One great valley parkway, Suite 2, Malvern Pa., 19355, USA). The principle of the assay consists of the measurement of incorporated ^33P into poly[Glu:Tyr] (4:1) (0.2 mg/mL) when the substrate is phosphorylated by the enzyme using [^33P]-γ-ATP and ATP (10 μM).
To determine the IC50, a serial dilution of compound is tested starting from 10, or 3 μM (highest dilution) with a 1/3 dilution.

T1 sequence (P29317 24-976): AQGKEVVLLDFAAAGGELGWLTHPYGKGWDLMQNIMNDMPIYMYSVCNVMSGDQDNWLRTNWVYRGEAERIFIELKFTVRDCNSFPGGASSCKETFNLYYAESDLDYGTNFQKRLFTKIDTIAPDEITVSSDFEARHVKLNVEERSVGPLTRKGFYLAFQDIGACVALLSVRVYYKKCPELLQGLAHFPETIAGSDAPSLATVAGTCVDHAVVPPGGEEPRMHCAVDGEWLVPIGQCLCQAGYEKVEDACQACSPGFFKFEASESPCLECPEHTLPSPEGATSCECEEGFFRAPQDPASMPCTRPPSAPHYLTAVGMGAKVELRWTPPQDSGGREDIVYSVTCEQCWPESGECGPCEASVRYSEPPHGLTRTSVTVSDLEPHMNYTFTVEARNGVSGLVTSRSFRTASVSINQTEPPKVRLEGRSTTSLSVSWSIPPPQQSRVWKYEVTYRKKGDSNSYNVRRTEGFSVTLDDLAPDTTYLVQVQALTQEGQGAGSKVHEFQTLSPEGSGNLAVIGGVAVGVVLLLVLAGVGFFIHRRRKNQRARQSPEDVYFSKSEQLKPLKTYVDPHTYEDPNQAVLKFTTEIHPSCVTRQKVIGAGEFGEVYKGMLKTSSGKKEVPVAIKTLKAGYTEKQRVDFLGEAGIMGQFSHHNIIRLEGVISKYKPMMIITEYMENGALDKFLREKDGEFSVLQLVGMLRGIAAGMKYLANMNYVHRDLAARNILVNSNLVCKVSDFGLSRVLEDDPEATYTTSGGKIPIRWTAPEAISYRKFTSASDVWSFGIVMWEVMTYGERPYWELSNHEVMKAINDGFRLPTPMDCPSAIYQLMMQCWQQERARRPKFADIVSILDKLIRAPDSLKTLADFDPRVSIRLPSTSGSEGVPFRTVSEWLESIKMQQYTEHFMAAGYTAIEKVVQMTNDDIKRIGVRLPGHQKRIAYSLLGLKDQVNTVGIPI

SMILES | IC50
Cc1ccc(NC(=O)c2cccc(C(F)(F)F)c2)cc1-c1ccc2c(CO)n[nH]c2n1 [Compound 1, N-(3-(3-(hydroxymethyl)-1H-pyrazolo[3,4-b]pyridin-6-yl)-4-methylphenyl)-3-(trifluoromethyl)benzamide] | 0.01 to 25 nM
CCc1n[nH]c2nc(-c3cc(NC(=O)c4cc(C)cc(OCCO)c4)ccc3C)ccc12 [Compound 23, N-[3-(3-Ethyl-1H-pyrazolo[3,4-b]pyridin-6-yl)-4-methyl-phenyl]-3-(2-hydroxy-ethoxy)-5-methyl-benzamide] | 0.01 to 25 nM
CCc1n[nH]c2nc(-c3cc(NC(=O)c4cc(C)cc(OCCN(C)C)c4)ccc3C)ccc12 [Compound 25, 3-(2-Dimethylamino-ethoxy)-N-[3-(3-ethyl-1H-pyrazolo[3,4-b]pyridin-6-yl)-4-methyl-phenyl]-5-methyl-benzamide] | 0.01 to 25 nM
CCc1n[nH]c2nc(-c3cc(NC(=O)c4cc(N(C)C)cc(C(F)(F)F)c4)ccc3C)ccc12 [Compound 26, 3-Dimethylamino-N-[3-(3-ethyl-1H-pyrazolo[3,4-b]pyridin-6-yl)-4-methyl-phenyl]-5-trifluoromethyl-benzamide] | 50 to 100 nM
CCc1n[nH]c2nc(-c3cc(NC(=O)c4cc(OC)cc(OCCN5CCOCC5)c4)ccc3C)ccc12 [Compound 41, N-[3-(3-Ethyl-1H-pyrazolo[3,4-b]pyridin-6-yl)-4-methyl-phenyl]-3-methoxy-5-(2-morpholin-4-yl-ethoxy)-benzamide] | 0.01 to 25 nM
CCc1n[nH]c2nc(-c3cc(NC(=O)c4cc(OCCN5CCOCC5)cc(C5CC5)c4)cnc3C)ccc12 [Compound 43, 3-Cyclopropyl-N-[5-(3-ethyl-1H-pyrazolo[3,4-b]pyridin-6-yl)-6-methyl-pyridin-3-yl]-5-(2-morpholin-4-yl-ethoxy)-benzamide] | 0.01 to 25 nM
CCc1n[nH]c2nc(-c3cc(NC(=O)c4cc(OC)cc(OCCN)c4)cnc3C)ccc12 [Compound 44, 3-(2-Amino-ethoxy)-N-[5-(3-ethyl-1H-pyrazolo[3,4-b]pyridin-6-yl)-6-methyl-pyridin-3-yl]-5-methoxy-benzamide] | 50 to 100 nM
Cc1cc(C)cc(C(=O)Nc2cnc(C)c(-c3ccc4c(C)n[nH]c4n3)c2)c1 [Compound 52, 3,5-Dimethyl-N-[6-methyl-5-(3-methyl-1H-pyrazolo[3,4-b]pyridin-6-yl)-pyridin-3-yl]-benzamide] | 0.01 to 25 nM
Cc1ncc(NC(=O)c2cccc(C(F)(F)F)c2)cc1-c1ccc2c(C)n[nH]c2n1 [Compound 53, N-[6-Methyl-5-(3-methyl-1H-pyrazolo[3,4-b]pyridin-6-yl)-pyridin-3-yl]-3-trifluoromethyl-benzamide] | 0.01 to 25 nM

Now from value to compound:

IC50 | SMILES
0.01 to 25 nM | CCc1n[nH]c2nc(-c3cc(NC(=O)c4cc(C)cc(OC)c4)ccc3C)ccc12 [Compound 19, N-[3-(3-Ethyl-1H-pyrazolo[3,4-b]pyridin-6-yl)-4-methyl-phenyl]-3-methoxy-5-methyl-benzamide]
25 to 50 nM | CCc1n[nH]c2nc(-c3cc(NC(=O)c4cc(OC)cc(OC)c4)ccc3Cl)ccc12 [Compound 22, N-[4-Chloro-3-(3-ethyl-1H-pyrazolo[3,4-b]pyridin-6-yl)-phenyl]-3,5-dimethoxy-benzamide]
50 to 100 nM | CCc1ccc(NC(=O)c2cc(OC)cc(OC)c2)cc1-c1ccc2c(CC)n[nH]c2n1 [Compound 32, N-[4-Ethyl-3-(3-ethyl-1H-pyrazolo[3,4-b]pyridin-6-yl)-phenyl]-3,5-dimethoxy-benzamide]
0.01 to 25 nM | CCc1n[nH]c2nc(-c3cc(NC(=O)c4cc(OC)cc(C(F)(F)F)c4)ccc3C)ccc12 [Compound 33, N-[3-(3-Ethyl-1H-pyrazolo[3,4-b]pyridin-6-yl)-4-methyl-phenyl]-3-methoxy-5-trifluoromethyl-benzamide]
0.01 to 25 nM | CCc1n[nH]c2nc(-c3cc(NC(=O)c4cc(OC)cc(OCCN)c4)ccc3C)ccc12 [Compound 39, 3-(2-amino-ethoxy)-N-[3-(3-ethyl-1H-pyrazolo[3,4-b]pyrin-6-yl)-4-methylphenyl]-5-methoxybenzamide]
25 to 50 nM | COc1cc(OC)cc(C(=O)Nc2ccc(C)c(-c3ccc4c([C@@H](C)O)n[nH]c4n3)c2)c1 [Compound 48, N-{3-[3-((R)-1-Hydroxy-ethyl)-1H-pyrazolo[3,4-b]pyridin-6-yl]-4-methyl-phenyl}-3,5-dimethoxy-benzamide]
0.01 to 25 nM | CCc1n[nH]c2nc(-c3cc(NC(=O)c4cc(OC)cc(C5CC5)c4)ccc3C)ccc12 [Compound 51, 3-Cyclopropyl-N-[3-(3-ethyl-1H-pyrazolo[3,4-b]pyridin-6-yl)-4-methyl-phenyl]-5-methoxy-benzamide]
0.01 to 25 nM | Cc1cc(C)cc(C(=O)Nc2ccc(C)c(-c3ccc4c(C(C)O)n[nH]c4n3)c2)c1 (stereo not drawn) [Compound 54, N-{3-[3-(1-Hydroxy-ethyl)-1H-pyrazolo[3,4-b]pyridin-6-yl]-4-methyl-phenyl}-3,5-dimethyl-benzamide]

Each compound was assayed against T2, Recombinant EphA7 (Homo sapiens, UniProt Q15375) (assay: EphA7 assay (33P incorporation into poly GT, filter plate)). Conditions: EphA7 potency; 0.15 μM ATP; read-out: IC50.
T2 construct: purchased Carna 08-126
T2 sequence (Q15375 579-998 limits assumed): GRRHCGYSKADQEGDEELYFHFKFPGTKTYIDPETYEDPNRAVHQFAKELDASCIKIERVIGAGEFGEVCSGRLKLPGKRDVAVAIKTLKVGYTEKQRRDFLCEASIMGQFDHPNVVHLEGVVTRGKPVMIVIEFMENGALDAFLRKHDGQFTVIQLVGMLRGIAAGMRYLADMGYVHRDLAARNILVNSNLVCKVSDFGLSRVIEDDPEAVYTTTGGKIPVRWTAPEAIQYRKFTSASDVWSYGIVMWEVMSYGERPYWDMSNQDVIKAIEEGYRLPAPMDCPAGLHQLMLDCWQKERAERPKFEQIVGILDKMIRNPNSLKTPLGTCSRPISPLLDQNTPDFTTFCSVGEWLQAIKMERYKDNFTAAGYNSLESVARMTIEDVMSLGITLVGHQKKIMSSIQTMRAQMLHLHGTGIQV
Type: biochemical
Protocol: The principle of the assay consists of the measurement of incorporated ^33P into the substrate poly GT when phosphorylated by the enzyme EphA7 using [^33P]-γ-ATP and ATP. Unincorporated ^33P is removed by loading the samples on a filter plate (using a harvester, Perkin Elmer) and 6 subsequent washing steps. ^33P incorporated in polyGT is measured on a Topcount after addition of microscint to the filter plates (Perkin Elmer).
Recombinant EphA7 (Carna Cat#08-126, 2 ng per well) was incubated with 0.1 mg/mL Poly(Glu,Tyr)sodium salt (4:1), MW 20 000-50 000 (Sigma catalog number P0275) in kinase reaction buffer (10 mM MOPS pH 7.2, 5 mM DTT, 0.01% Triton-X100, 5 mM MnCl2, 0.5 mM Na3VO4, 5 mM beta-glycerolphosphate), 0.15 μM non-radioactive ATP, 0.125 μCi/25 μl ^33P-gamma-ATP (Perkin Elmer, catalog number NEG602K) final concentrations with or without 5 μL containing test compound or vehicle (DMSO, 1% final concentration), in a total volume of 25 μL, in a polypropylene 96-well plate (Greiner, V-bottom). After 90 min at 30° C., reactions were stopped by adding of 25 μL/well of 150 mM phosphoric acid. All of the terminated kinase reaction was transferred to prewashed (75 mM phosphoric acid) 96 well filter plates (Perkin Elmer catalog number 6005177) using a cell harvester (Perkin Elmer). Plates were washed 6 times with 300 μL per well of a 75 mM phosphoric acid solution and the bottom of the plates was sealed. 40 μL/well of Microscint-20 was added, the top of the plates was sealed and readout was performed using the Topcount (Perkin Elmer). The ability of a test compound to inhibit the kinase activity was determined using counts per minutes (cpm) measured by the Topcount as:
Cpm (cpd): cpm determined for sample with test compound present
Cpm (control): cpm determined for sample with positive control inhibitor (10 μM staurosporine)
Cpm (vehicle): cpm determined in the presence of vehicle (1% DMSO)
Dose dilution series were prepared for the compounds enabling the testing of dose-response effects in the EphA7 assay and the calculation of the IC50 for each compound. Each compound was routinely tested at concentration of 20 μM followed by a 1/5 serial dilution, 10 points in a final concentration of 1% DMSO. When potency of compound series increased, more dilutions may be prepared and/or the top concentration may be lowered (e.g. 5 μM, 1 μM).

IC50 | SMILES
0.01 to 250 nM | CCc1n[nH]c2nc(-c3cc(NC(=O)c4cc(OCCN5CCOCC5)cc(C5CC5)c4)cnc3C)ccc12 [Compound 43, 3-Cyclopropyl-N-[5-(3-ethyl-1H-pyrazolo[3,4-b]pyridin-6-yl)-6-methyl-pyridin-3-yl]-5-(2-morpholin-4-yl-ethoxy)-benzamide]
